This note sets out measurements from US10426774B2, “Methods of treating cancer having an active Wnt/β-catenin pathway” (DANA-FARBER CANCER INSTITUTE, INC., priority 2012, dated 2019).

For data set [1], the system named is zebrafish embryos. Nature of the data set: Zebrafish embryo gut formation (IFABP expression / gut reporter). The data set is classed as in vivo. Conditions: morpholino microinjection 50 μM; gut reporter fluorescence 4 dpf, IFABP in situ hybridization 3 dpf. The method, then: FIG. 5: YES1 is essential for tumorgenicity of β-catenin-active cells. (A) V5 immune complexes were isolated from HuTu80 or SW480 cells stably expressing WT or Y357F V5-epitope-tagged YAP1 or control V5-LacZ Immune complexes were analyzed by immunoblotting with a phosphotyrosine antibody. (B) HuTu80 or SW480 cells stably expressing V5-epitope-tagged WT YAP1 were treated for 6 hr with 0.5 or 2 μM of dasatinib. V5 immune complexes were analyzed by immunoblotting with a phosphotyrosine antibody. (C) Transgenic IFABP:RFP zebrafish were injected with 50 μM of YAP1- or YES1-specific morpholinos. Red fluorescence was assessed 4 dpf, or IFABP expression was assessed 3 dpf by using whole-mount in situ hybridization with an IFABP-specific probe. (D) Embryos were exposed to 2 μM of dasatinib at 2 dpf, and IFABP expression was assessed after 24 hr by using whole-mount in situ hybridization.
Zebrafish were maintained according to institutional animal care and use committee (IACUC-BIDMC) protocols. Validated morpholinos (MO) (Gene-Tools, PhiloMath, Oreg.) designed against the ATG site of YES1 (5′-CC […]-3′, SEQ ID NO: 1) (Jopling and Hertog, 2007) or YAP1 (5′-[…]-3′, SEQ ID NO: 2) (Skouloudaki et al., 2009) were injected into WT or gut reporter (Tg(fabp2:RFP)as200) zebrafish at the one-cell stage. […]

For data set [2], the system named is HuTu80. Nature of the data set: Small-molecule inhibitor proliferation assay (crystal violet), HuTu80. Conditions: Homo sapiens, 168 h, β-catenin pathway active, proliferation 7 d post treatment, read-out: IC50 Dasatinib. The data set is classed as cell-based. As to the method:
(§1) (A) The indicated cancer cell lines were treated with various concentrations of dasatinib and proliferation was measured 7 days post treatment. (B) HCT116 or (C) HuTu80 cells stably expressing a dastinib resistant YES1 (T348I) or SRC (T341I) were treated as in (A). (D) Representative picture of HCT116 cells treated as in (B).
(§2) 6000 cell/well were plated in 24-well plates and the indicated doses of dasatinib (Selleck, Houston) or vehicle was added 24 hr later. Proliferation was measured after 7 d by crystal violet staining.

Data set [3] has as its system SW480. Nature of the data set: Small-molecule inhibitor proliferation assay (crystal violet), SW480. In kind it is cell-based. The conditions noted are these: Homo sapiens, 168 h, β-catenin pathway active, proliferation 7 d post treatment, read-out: IC50 Dasatinib. The method, then: as §1, §2
The test system of data set [4] is HT55. Nature of the data set: Small-molecule inhibitor proliferation assay (crystal violet), HT55. In kind it is cell-based. The conditions noted are these: Homo sapiens, 168 h, β-catenin pathway active, proliferation 7 d post treatment, read-out: IC50 Dasatinib. As to the method:
as §1, §2

Data set [5] relates to DLD1. Nature of the data set: Small-molecule inhibitor proliferation assay (crystal violet), DLD1. The data set is classed as cell-based. Conditions: Homo sapiens, DLD-1, 168 h, β-catenin pathway active, proliferation 7 d post treatment, read-out: IC50 Dasatinib. As to the method:
as §1, §2

For data set [6], the system named is RKO. Nature of the data set: Small-molecule inhibitor proliferation assay (crystal violet), RKO. The data set is classed as cell-based. Conditions: Homo sapiens, 168 h, β-catenin pathway Non-active, proliferation 7 d post treatment, read-out: IC50 Dasatinib. The method, then:
as §1, §2

Data set [7] concerns HCT116. Nature of the data set: Small-molecule inhibitor proliferation assay (crystal violet), HCT116. In kind it is cell-based. The conditions noted are these: Homo sapiens, HCT-116, 168 h, β-catenin pathway active, proliferation 7 d post treatment, read-out: IC50 Dasatinib. As to the method:
as §1, §2

The test system of data set [8] is APC null organoids. Nature of the data set: Three-dimensional primary colon organoid culture, APC null. The data set is classed as cell-based, mouse. Conditions: 50 nM. As to the method: […] (B) Quantification of results in (A). Error bars represent SD from four replicates. Blank denotes wells where no organoids were added. (C) WT or AXIN1 mutant (Masterblind) zebrafish were treated with 2 μM of dasatinib from 6-8 dpf. Arrow indicates developing gut. (D) H&E staining of zebrafish in (C) width of epithelium is noted by bars. (E) The number of epithelial cells/section was measured in WT or AXIN1 mutant zebrafish treated with 2 μM of dasatinib or DMSO. Error bars represent the SD from 20 different sections from five treated fish. p value was calculated by using Student's t test.
(§3) Colons from Apc flox/flox; villin-CreER mice were dissected lengthwise and washed in cold PBS. 0.5-1 cm segment per dish was minced extensively on ice and embedded in a 3D collagen gel by using a double-dish culture system (Ootani et al., 2009). Tamoxifen (Sigma, 2 μM in ethanol) or vehicle (ethanol) was applied on the day of initial plating for 7 days to generate APC null or WT organoids.

For data set [9], the system named is WT organoids. Nature of the data set: Three-dimensional primary colon organoid culture, WT. The data set is classed as cell-based, mouse. The conditions noted are these: WT organoids treated with dasatinib. The method, then: (A) Representative images of colon organoids derived from WT or APC null mice treated for 6 days with 100 nM of dasatinib. (B) Quantification of results in (A). Error bars represent SD from four replicates. Blank denotes wells where no organoids were added. (C) WT or AXIN1 mutant (Masterblind) zebrafish were treated with 2 μM of dasatinib from 6-8 dpf. Arrow indicates developing gut. (D) H&E staining of zebrafish in (C) width of epithelium is noted by bars. (E) The number of epithelial cells/section was measured in WT or AXIN1 mutant zebrafish treated with 2 μM of dasatinib or DMSO. Error bars represent the SD from 20 different sections from five treated fish. p value was calculated by using Student's t test.
as §3

Data set [10] concerns Colo205. Nature of the data set: Small-molecule inhibitor proliferation assay (crystal violet), Colo205. In kind it is cell-based. The conditions noted are these: Homo sapiens, COLO 205, 168 h, β-catenin pathway active, proliferation 7 d post treatment, read-out: IC50 Dasatinib. The method, then: as §1, §2
In data set [11] the test system is KM12. Nature of the data set: Small-molecule inhibitor proliferation assay (crystal violet), KM12. In kind it is cell-based. Conditions: Homo sapiens, 168 h, β-catenin pathway Non-active, proliferation 7 d post treatment, read-out: IC50 Dasatinib. The method, then:
as §1, §2

As to “5′-CC TCTTTACTCTTGACACAGCCCAT-3′ (CCTCTTTACTCTTGACACAGCCCAT; morpholino backbone, further chemistry not given here) [YES1 morpholino]”, the gut formation entry in [1] is “dramatically inhibited”.
As for “5′-AGCAACATTAACAACTCACTTTAGG-3′ (morpholino backbone, further chemistry not given here) [YAP1 morpholino]”, in data set [1], the gut formation entry was “dramatically inhibited”.
For `Cc1nc(Nc2ncc(C(=O)Nc3c(C)cccc3Cl)s2)cc(N2CCN(CCO)CC2)n1` [dasatinib], the IC50 in data set [2] is 70 nM; in [3] it was 50 nM; in data set [4], 70 nM; in data set [5] it was 125 nM; in data set [6], > 800 nM; in [7], 68 nM. In addition, the results for the IC50 in data set [10] and in data set [11] were 80 nM and > 800 nM, respectively. Moreover, the “decrease in growth of APC null organoids” value in data set [8] is 70%. For the same molecule, the “growth inhibition of WT organoids” value in data set [9] is reported as 5%.

By IC50 is commonly meant the midpoint of a concentration-inhibition curve.
